What was measured:
[1] = molecular target: T1, human FPR2 (Homo sapiens, UniProt P25090); experiment: FPR2 cyclic adenosine monophosphate (cAMP) assay; type: cell-based; details: CHO cells overexpressing human FPR2; forskolin 5 μM; inhibition of cAMP production; HTRF; read-out: hFPR2 cAMP2 EC50
T1 sequence (P25090 1-351): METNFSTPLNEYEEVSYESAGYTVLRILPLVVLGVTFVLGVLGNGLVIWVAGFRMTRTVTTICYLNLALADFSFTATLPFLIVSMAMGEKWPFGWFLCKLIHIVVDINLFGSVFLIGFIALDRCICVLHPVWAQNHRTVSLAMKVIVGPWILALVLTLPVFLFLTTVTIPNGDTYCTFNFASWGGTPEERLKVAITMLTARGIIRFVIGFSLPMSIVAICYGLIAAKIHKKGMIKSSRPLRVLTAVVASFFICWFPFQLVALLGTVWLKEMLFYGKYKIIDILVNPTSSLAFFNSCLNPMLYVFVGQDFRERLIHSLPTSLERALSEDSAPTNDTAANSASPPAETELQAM
Summary of the method: (§1)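 CHO/hFPR1 4,000 cells/well, forskolin 10 μM final; CHO/hFPR2 2,000 cells/well, forskolin 5 μM final. IBMX 200 μM, DMSO 1%, DPBS + Ca/Mg + 0.1% BSA, 30 min rt. HTRF cAMP; 4-PL fit.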

[2] = molecular target: T2, human FPR1 (Homo sapiens, UniProt P21462); experiment: FPR1 cyclic adenosine monophosphate (cAMP) assay; type: cell-based; details: CHO cells overexpressing human FPR1; forskolin 10 μM; inhibition of cAMP production; HTRF; read-out: hFPR1 cAMP2 EC50
T2 sequence (P21462 1-350): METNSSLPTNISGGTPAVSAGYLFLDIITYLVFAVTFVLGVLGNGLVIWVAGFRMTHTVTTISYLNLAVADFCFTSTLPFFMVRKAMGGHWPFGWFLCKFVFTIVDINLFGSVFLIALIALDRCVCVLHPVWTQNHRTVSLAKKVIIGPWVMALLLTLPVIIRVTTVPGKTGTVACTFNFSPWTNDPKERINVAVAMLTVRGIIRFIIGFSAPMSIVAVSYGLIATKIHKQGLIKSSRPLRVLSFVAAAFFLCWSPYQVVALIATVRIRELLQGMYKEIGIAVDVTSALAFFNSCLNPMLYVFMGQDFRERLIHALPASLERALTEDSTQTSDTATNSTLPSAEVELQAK
Summary of the method: as §1

EC50 [1] | EC50 [2] | Compound
1 nM | 2500 nM | COc1cc(OCC(O)C(F)(F)F)nc(-n2c(=O)c(NC(=O)c3ccc(OC(F)F)cc3)c(-c3c(F)cc(OC)cc3F)n2C)c1 (centres unmarked) [Example 383, N-(5-(2,6-Difluoro-4-methoxyphenyl)-2-(4-methoxy-6-(3,3,3-trifluoro-2-hydroxypropoxy)pyridin-2-yl)-1-methyl-3-oxo-2,3-dihydro-1H-pyrazol-4-yl)-4-(difluoromethoxy)benzamide]
7 nM | > 10000 nM | COc1cc(OCC2(CO)COC2)nc(-n2c(=O)c(NC(=O)c3ccc(OC(F)F)cc3)c(-c3c(F)cc(OC)cc3F)n2C)c1 [Example 384, N-(5-(2,6-Difluoro-4-methoxyphenyl)-2-(6-((3-(hydroxymethyl)oxetan-3-yl)methoxy)-4-methoxypyridin-2-yl)-1-methyl-3-oxo-2,3-dihydro-1H-pyrazol-4-yl)-4-(difluoromethoxy)benzamide]
3 nM | > 10000 nM | COc1cc(OCC(C)(C)F)nc(-n2c(=O)c(NC(=O)c3ccc(OC(F)F)cc3)c(-c3c(F)cc(OC)cc3F)n2C)c1 [Example 385, N-(5-(2,6-Difluoro-4-methoxyphenyl)-2-(6-(2-fluoro-2-methylpropoxy)-4-methoxypyridin-2-yl)-1-methyl-3-oxo-2,3-dihydro-1H-pyrazol-4-yl)-4-(difluoromethoxy)benzamide]
9 nM | > 10000 nM | COCC(CO)Oc1cc(OC)cc(-n2c(=O)c(NC(=O)c3ccc(OC(F)F)cc3)c(-c3c(F)cc(OC)cc3F)n2C)n1 (centres unmarked) [Example 386, N-(5-(2,6-Difluoro-4-methoxyphenyl)-2-(6-((1-hydroxy-3-methoxypropan-2-yl)oxy)-4-methoxypyridin-2-yl)-1-methyl-3-oxo-2,3-dihydro-1H-pyrazol-4-yl)-4-(difluoromethoxy)benzamide]
8 nM | > 10000 nM | COc1cc(OCC(C)(F)F)nc(-n2c(=O)c(NC(=O)c3ccc(OC(F)F)cc3)c(-c3c(F)cc(OC)cc3F)n2C)c1 [Example 387, N-(5-(2,6-Difluoro-4-methoxyphenyl)-2-(6-(2,2-difluoropropoxy)-4-methoxypyridin-2-yl)-1-methyl-3-oxo-2,3-dihydro-1H-pyrazol-4-yl)-4-(difluoromethoxy)benzamide]
4 nM | 3600 nM | COc1cc(F)c(-c2c(NC(=O)c3ccc(OC(F)F)cc3)c(=O)n(-c3ccc(OCCO)cn3)n2C)c(F)c1 [Example 388, N-(5-(2,6-Difluoro-4-methoxyphenyl)-2-(5-(2-hydroxyethoxy)pyridin-2-yl)-1-methyl-3-oxo-2,3-dihydro-1H-pyrazol-4-yl)-4-(difluoromethoxy)benzamide]
6 nM | 4500 nM | COc1cc(OCC(F)(F)F)nc(-n2c(=O)c(NC(=O)c3ccc(OC(F)F)cc3)c(-c3c(F)cc(OC)cc3F)n2C)c1 [Example 389, N-(5-(2,6-Difluoro-4-methoxyphenyl)-2-(4-methoxy-6-(2,2,2-trifluoroethoxy)pyridin-2-yl)-1-methyl-3-oxo-2,3-dihydro-1H-pyrazol-4-yl)-4-(difluoromethoxy)benzamide]
10 nM | 2200 nM | COc1cc(OC(CO)C(F)(F)F)nc(-n2c(=O)c(NC(=O)c3ccc(OC(F)F)cc3)c(-c3c(F)cc(OC)cc3F)n2C)c1 (centres unmarked) [Example 390, N-(5-(2,6-Difluoro-4-methoxyphenyl)-2-(4-methoxy-6-((1,1,1-trifluoro-3-hydroxypropan-2-yl)oxy)pyridin-2-yl)-1-methyl-3-oxo-2,3-dihydro-1H-pyrazol-4-yl)-4-(difluoromethoxy)benzamide]
6 nM | 240 nM | COc1cc(F)c(-c2c(NC(=O)c3ccc(OC(F)F)cc3)c(=O)n(-c3cc(OCC4CCCO4)cc(C)n3)n2C)c(F)c1 (centres unmarked) [Example 391, N-(5-(2,6-Difluoro-4-methoxyphenyl)-1-methyl-2-(6-methyl-4-((tetrahydrofuran-2-yl)methoxy)pyridin-2-yl)-3-oxo-2,3-dihydro-1H-pyrazol-4-yl)-4-(difluoromethoxy)benzamide]
22 nM | 830 nM | COc1cc(F)c(-c2c(NC(=O)c3ccc(OC(F)F)cc3)c(=O)n(-c3cccc(OCC(C)(C)O)n3)n2C)c(F)c1 [Example 392, N-(5-(2,6-Difluoro-4-methoxyphenyl)-2-(6-(2-hydroxy-2-methylpropoxy)pyridin-2-yl)-1-methyl-3-oxo-2,3-dihydro-1H-pyrazol-4-yl)-4-(difluoromethoxy)benzamide]
15 nM | 2800 nM | COc1cc(F)c(-c2c(NC(=O)c3ccc(OC(F)F)cc3)c(=O)n(-c3cc(OCC(C)O)cc(C)n3)n2C)c(F)c1 (centres unmarked) [Example 393, N-(5-(2,6-Difluoro-4-methoxyphenyl)-2-(4-(2-hydroxypropoxy)-6-methylpyridin-2-yl)-1-methyl-3-oxo-2,3-dihydro-1H-pyrazol-4-yl)-4-(difluoromethoxy)benzamide]
5 nM | 740 nM | COc1cc(F)c(-c2c(NC(=O)c3ccc(OC(F)F)cc3)c(=O)n(-c3cc(OCC(C)O)cc(C)n3)n2C)c(F)c1 (centres unmarked) [Example 394, N-(5-(2,6-Difluoro-4-methoxyphenyl)-2-(4-(2-hydroxypropoxy)-6-methylpyridin-2-yl)-1-methyl-3-oxo-2,3-dihydro-1H-pyrazol-4-yl)-4-(difluoromethoxy)benzamide]
61 nM | > 10000 nM | COc1cc(F)c(-c2c(NC(=O)c3ccc(OC(F)F)cc3)c(=O)n(-c3cccn(C)c3=O)n2C)c(F)c1 [Example 395, N-(5-(2,6-Difluoro-4-methoxyphenyl)-1-methyl-2-(1-methyl-2-oxo-1,2-dihydropyridin-3-yl)-3-oxo-2,3-dihydro-1H-pyrazol-4-yl)-4-(difluoromethoxy)benzamide]
2 nM | 300 nM | COc1cc(F)c(-c2c(NC(=O)c3ccc(OC(F)F)cc3)c(=O)n(-c3cc(OCC4CCCO4)cc(C)n3)n2C)c(F)c1 (centres unmarked) [Example 396, N-(5-(2,6-Difluoro-4-methoxyphenyl)-1-methyl-2-(6-methyl-4-((tetrahydrofuran-2-yl)methoxy)pyridin-2-yl)-3-oxo-2,3-dihydro-1H-pyrazol-4-yl)-4-(difluoromethoxy)benzamide]
8 nM | > 10000 nM | [2H]C([2H])([2H])Oc1cc(F)c(-c2c(NC(=O)c3ccc(OC(F)F)cc3)c(=O)n(-c3cc(C(F)F)ccn3)n2C)c(F)c1 [Example 397, N-(5-(2,6-difluoro-4-(methoxy-d3)phenyl)-2-(4-(difluoromethyl)pyridin-2-yl)-1-methyl-3-oxo-2,3-dihydro-1H-pyrazol-4-yl)-4-(difluoromethoxy)benzamide]
24 nM | 590 nM | CC(C)Oc1cc(OCCO)nc(-n2c(=O)c(NC(=O)c3ccc(OC(F)(F)F)cc3)c(-c3c(F)cc(Cl)cc3F)n2C)c1 [Example 398, N-(5-(4-chloro-2,6-difluorophenyl)-2-(6-(2-hydroxyethoxy)-4-isopropoxypyridin-2-yl)-1-methyl-3-oxo-2,3-dihydro-1H-pyrazol-4-yl)-4-(trifluoromethoxy)benzamide]
11 nM | 550 nM | CC(C)Oc1cc(OCCO)nc(-n2c(=O)c(NC(=O)c3ccc(OC(F)F)cc3)c(-c3c(F)cc(Cl)cc3F)n2C)c1 [Example 399, N-(5-(4-chloro-2,6-difluorophenyl)-2-(6-(2-hydroxyethoxy)-4-isopropoxypyridin-2-yl)-1-methyl-3-oxo-2,3-dihydro-1H-pyrazol-4-yl)-4-(difluoromethoxy)benzamide]
57 nM | > 10000 nM | Cc1cc(OCC(C)(C)O)nc(-n2c(=O)c(NC(=O)c3ccc(OC(F)F)cc3)c(-c3c(F)cc(OC(F)F)cc3F)n2C)c1 [Example 400, 4-(difluoromethoxy)-N-(5-(4-(difluoromethoxy)-2,6-difluorophenyl)-2-(6-(2-hydroxy-2-methylpropoxy)-4-methylpyridin-2-yl)-1-methyl-3-oxo-2,3-dihydro-1H-pyrazol-4-yl)benzamide]
103 nM | 1800 nM | Cn1c(-c2c(F)cc(C(F)(F)F)cc2F)c(NC(=O)c2ccc(OC(F)F)cc2)c(=O)n1-c1cccc(C(C)(C)O)n1 [Example 401, N-(5-(2,6-difluoro-4-(trifluoromethyl)phenyl)-2-(6-(2-hydroxypropan-2-yl)pyridin-2-yl)-1-methyl-3-oxo-2,3-dihydro-1H-pyrazol-4-yl)-4-(difluoromethoxy)benzamide]
